Data published in patent US10947213B1 (Merck Patent GmbH, priority 2015, dated 2021).

What follows are compounds tested against T1, TLR7/NFKb HEK cells (Homo sapiens, UniProt Q9NYK1) (assay: HEK Cell Assay (TLR7/NFKb reporter, Steady-Glo luciferase readout)). Settings: 30 min compound preincubation, then R*48 agonist for 5 hours, read-out: Potency.
T1 construct: expressed in transfected cells; host or cells: HEK cells (TLR7/NFKb reporter line)
T1 sequence (Q9NYK1 27-1049): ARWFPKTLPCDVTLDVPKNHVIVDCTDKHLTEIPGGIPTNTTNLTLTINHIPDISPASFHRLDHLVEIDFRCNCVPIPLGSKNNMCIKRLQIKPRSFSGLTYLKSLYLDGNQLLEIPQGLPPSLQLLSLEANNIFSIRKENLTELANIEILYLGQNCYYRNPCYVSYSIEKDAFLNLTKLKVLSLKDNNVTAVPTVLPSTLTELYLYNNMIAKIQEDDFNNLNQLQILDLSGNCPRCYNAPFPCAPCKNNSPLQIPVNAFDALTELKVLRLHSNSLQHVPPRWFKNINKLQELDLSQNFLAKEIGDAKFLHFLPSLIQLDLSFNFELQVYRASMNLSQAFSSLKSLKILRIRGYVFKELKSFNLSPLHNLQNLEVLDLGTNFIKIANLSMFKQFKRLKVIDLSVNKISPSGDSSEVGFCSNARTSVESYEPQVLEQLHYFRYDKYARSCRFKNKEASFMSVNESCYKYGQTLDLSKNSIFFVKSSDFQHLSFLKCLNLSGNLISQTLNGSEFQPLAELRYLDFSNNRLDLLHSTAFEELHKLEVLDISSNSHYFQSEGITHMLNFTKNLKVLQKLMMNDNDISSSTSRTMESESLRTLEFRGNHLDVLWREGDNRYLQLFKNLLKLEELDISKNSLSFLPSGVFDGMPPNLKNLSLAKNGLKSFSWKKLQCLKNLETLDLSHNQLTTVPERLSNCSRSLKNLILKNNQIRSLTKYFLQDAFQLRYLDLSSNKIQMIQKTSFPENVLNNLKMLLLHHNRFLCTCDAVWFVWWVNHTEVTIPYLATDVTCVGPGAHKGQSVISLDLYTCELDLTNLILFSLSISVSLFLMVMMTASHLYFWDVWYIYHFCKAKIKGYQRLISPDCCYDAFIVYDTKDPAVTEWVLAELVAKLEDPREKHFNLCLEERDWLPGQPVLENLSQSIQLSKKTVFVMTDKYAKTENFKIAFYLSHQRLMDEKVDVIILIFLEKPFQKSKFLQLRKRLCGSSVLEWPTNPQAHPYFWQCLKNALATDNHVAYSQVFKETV
Format: cell-based
Procedure, shortened: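 Steady-Glo luminescence after 5 h stimulation with R*48 agonist, following 30 min compound preincubation. Assay run in HEK cells carrying a TLR7/NFKb luciferase reporter, plated at 5000 cells/well and grown 24 h at 37° C (10% CO2) before treatment.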

Row | Structure (SMILES) | IC50
1 | CNC(=O)CN[C@@H]1C[C@H](C)CN(c2ccc(C(F)(F)F)c3ncccc23)C1 [Compound 569] | < 1000 nM
2 | C[C@H]1C[C@@H](NCC(=O)O)CN(c2ccc(C(F)(F)F)c3ncccc23)C1 [Compound 571, [(3R,5S)-5-Methyl-1-(8-trifluoromethyl-quinolin-5-yl)-piperidin-3-ylamino]-acetic acid] | 1000 to 10000 nM
3 | C[C@H]1C[C@@H](NC(=O)C(C)(C)N2CCCCC2)CN(c2ccc(C(F)(F)F)c3ncccc23)C1 [Compound 572] | < 1000 nM
4 | C[C@H]1C[C@@H](NC(=O)CN2CCC(C)(C)C2)CN(c2ccc(C(F)(F)F)c3ncccc23)C1 [Compound 573, 2-(3,3-Dimethyl-pyrrolidin-1-yl)-N-[(3R,5S)-5-methyl-1-(8-trifluoromethyl-quinolin-5-yl)-piperidin-3-yl]-acetamide] | < 1000 nM
5 | CCN(CC)C(=O)CCC(=O)N[C@@H]1C[C@H](C)CN(c2ccc(C(F)(F)F)c3ncccc23)C1 [Compound 575, N,N-Diethyl-N′-[(3R,5S)-5-methyl-1-(8-trifluoromethyl-quinolin-5-yl)-piperidin-3-yl]-succinamide] | 1000 to 10000 nM
6 | CC(C)(C(=O)N[C@@H]1C[C@H](C(F)(F)F)CN(c2ccc(C#N)c3ncccc23)C1)N1CCCCC1 [Compound 576, N-[(3R,5S)-1-(8-Cyano-quinolin-5-yl)-5-trifluoromethyl-piperidin-3-yl]-2-piperidin-1-yl-isobutyramide] | < 1000 nM
7 | CC1(C)CCN(CC(=O)N[C@@H]2C[C@H](C(F)(F)F)CN(c3ccc(C#N)c4ncccc34)C2)C1 [Compound 577, N-[(3R,5S)-1-(8-Cyano-quinolin-5-yl)-5-trifluoromethyl-piperidin-3-yl]-2-(3,3-dimethyl-pyrrolidin-1-yl)-acetamide] | < 1000 nM
8 | N#Cc1ccc(N2C[C@H](NC(=O)C3CCN(C4CC4)CC3)C[C@H](C(F)(F)F)C2)c2cccnc12 [Compound 578, 1-Cyclopropyl-piperidine-4-carboxylic acid [(3R,5S)-1-(8-cyano-quinolin-5-yl)-5-trifluoromethyl-piperidin-3-yl]-amide] | < 1000 nM
9 | CCN(CC)C(=O)CCC(=O)N[C@@H]1C[C@H](C(F)(F)F)CN(c2ccc(C#N)c3ncccc23)C1 [Compound 579, N-[(3R,5S)-1-(8-Cyano-quinolin-5-yl)-5-trifluoromethyl-piperidin-3-yl]-N′,N′-diethyl-succinamide] | 1000 to 10000 nM
10 | N#Cc1ccc(N2C[C@H](NC(=O)NCC3CC(F)(F)C3)C[C@H](C(F)(F)F)C2)c2cccnc12 [Compound 580, 1-[(3R,5S)-1-(8-Cyano-quinolin-5-yl)-5-trifluoromethyl-piperidin-3-yl]-3-(3,3-difluoro-cyclobutylmethyl)-urea] | 1000 to 10000 nM
11 | N#Cc1ccc(N2C[C@H](NC(=O)N3C[C@@H](F)[C@@H](F)C3)C[C@H](C(F)(F)F)C2)c2cccnc12 [Compound 581, (3R,4S)-3,4-Difluoro-pyrrolidine-1-carboxylic Acid [(3R,5S)-1-(8-cyano-quinolin-5-yl)-5-trifluoromethyl-piperidin-3-yl]-amide] | 1000 to 10000 nM
12 | N#Cc1ccc(N2C[C@H](NC(=O)CC3CCC(F)(F)CC3)C[C@H](C(F)(F)F)C2)c2cccnc12 [Compound 584, N-[(3R,5S)-1-(8-Cyano-quinolin-5-yl)-5-trifluoromethyl-piperidin-3-yl]-2-(4,4-difluoro-cyclohexyl)-acetamide] | < 1000 nM
13 | CC(C)N1CCC(CC(=O)N[C@@H]2C[C@H](C(F)(F)F)CN(c3ccc(C#N)c4ncccc34)C2)CC1 [Compound 585, N-[(3R,5S)-1-(8-Cyano-quinolin-5-yl)-5-trifluoromethyl-piperidin-3-yl]-2-(1-isopropyl-piperidin-4-yl)-acetamide] | < 1000 nM

More lines, now with the values ahead:

Row | IC50 | Structure (SMILES)
14 | 1000 to 10000 nM | Cc1ncc(N2C[C@@H](C)C[C@@H](NC(=O)CC3CN(C(=O)OC(C)(C)C)C3)C2)c2cccnc12 [Compound 557, 3-{[(3R,5S)-5-Methyl-1-(8-methyl-[1,7]naphthyridin-5-yl)-piperidin-3-ylcarbamoyl]-methyl}-azetidine-1-carboxylic Acid tert-butyl ester]
15 | 1000 to 10000 nM | Cc1ncc(N2C[C@@H](C)C[C@@H](NC(=O)[C@H](O)C3CC3)C2)c2cccnc12 [Compound 558, (R)-2-Cyclopropyl-2-hydroxy-N-[(3R,5S)-5-methyl-1-(8-methyl-[1,7]naphthyridin-5-yl)-piperidin-3-yl]-acetamide]
16 | 1000 to 10000 nM | Cc1ncc(N2C[C@@H](C)C[C@@H](NC(=O)[C@@H](O)C3CC3)C2)c2cccnc12 [Compound 559, (S)-2-Cyclopropyl-2-hydroxy-N-[(3R,5S)-5-methyl-1-(8-methyl-[1,7]naphthyridin-5-yl)-piperidin-3-yl]-acetamide]
17 | < 1000 nM | Cc1ncc(N2C[C@@H](C)C[C@@H](NC(=O)CC3CCN(C)C3)C2)c2cccnc12 (stereo partly drawn) [Compound 560, N-[(3R,5S)-5-Methyl-1-(8-methyl-[1,7]naphthyridin-5-yl)-piperidin-3-yl]-2-(1-methyl-pyrrolidin-3-yl)-acetamide]
18 | < 1000 nM | Cc1ncc(N2C[C@@H](C)C[C@@H](NC(=O)[C@H](N)C3CC3)C2)c2cccnc12 [Compound 561, (R)-2-Amino-2-cyclopropyl-N-[(3R,5S)-5-methyl-1-(8-methyl-[1,7]naphthyridin-5-yl)-piperidin-3-yl]-acetamide]
19 | < 1000 nM | Cc1ncc(N2C[C@@H](C)C[C@@H](NC(=O)[C@@H](N)C3CC3)C2)c2cccnc12 [Compound 562, (S)-2-Amino-2-cyclopropyl-N-[(3R,5S)-5-methyl-1-(8-methyl-[1,7]naphthyridin-5-yl)-piperidin-3-yl]-acetamide]
20 | < 1000 nM | Cc1ncc(N2C[C@@H](C)C[C@@H](NC(=O)CC3(N)CCCCC3)C2)c2cccnc12 [Compound 563, 2-(1-Amino-cyclohexyl)-N-[(3R,5S)-5-methyl-1-(8-methyl-[1,7]naphthyridin-5-yl)-piperidin-3-yl]-acetamide]
21 | > 10000 nM | Cc1ncc(N2C[C@@H](C)C[C@@H](NC(=O)CCC(N)=O)C2)c2cccnc12 [Compound 564, N-[(3R,5S)-5-Methyl-1-(8-methyl-[1,7]naphthyridin-5-yl)-piperidin-3-yl]-succinamide]
22 | 1000 to 10000 nM | CNC(=O)CCC(=O)N[C@@H]1C[C@H](C)CN(c2cnc(C)c3ncccc23)C1 [Compound 565, N-Methyl-N′-[(3R,5S)-5-methyl-1-(8-methyl-[1,7]naphthyridin-5-yl)-piperidin-3-yl]-succinamide]
23 | 1000 to 10000 nM | Cc1ncc(N2C[C@@H](C)C[C@@H](NC(=O)CCC(=O)N3CCC3)C2)c2cccnc12 [Compound 566, 4-Azetidin-1-yl-N-[(3R,5S)-5-methyl-1-(8-methyl-[1,7]naphthyridin-5-yl)-piperidin-3-yl]-4-oxo-butyramide]
24 | > 10000 nM | Cc1ncc(N2C[C@@H](C)C[C@@H](NC(=O)CCC(=O)O)C2)c2cccnc12 [Compound 567, N-[(3R,5S)-5-Methyl-1-(8-methyl-[1,7]naphthyridin-5-yl)-piperidin-3-yl]-succinamic acid]
25 | < 1000 nM | C[C@H]1C[C@@H](NCC(=O)N2CCC2)CN(c2ccc(C(F)(F)F)c3ncccc23)C1 [Compound 568, 1-Azetidin-1-yl-2-[(3R,5S)-5-methyl-1-(8-trifluoromethyl-quinolin-5-yl)-piperidin-3-ylamino]-ethanone]
26 | < 1000 nM | C[C@H]1C[C@@H](NCC(N)=O)CN(c2ccc(C(F)(F)F)c3ncccc23)C1 [Compound 570]
27 | < 1000 nM | C[C@H]1C[C@@H](NC(=O)C2CCN(C3CC3)CC2)CN(c2ccc(C(F)(F)F)c3ncccc23)C1 [Compound 574, 1-Cyclopropyl-piperidine-4-carboxylic acid [(3R,5S)-5-methyl-1-(8-trifluoromethyl-quinolin-5-yl)-piperidin-3-yl]-amide]
28 | 1000 to 10000 nM | C[C@H]1C[C@@H](NC(=O)NCC2CC(F)(F)C2)CN(c2ccc(C(F)(F)F)c3ncccc23)C1 [Compound 582, 1-(3,3-Difluoro-cyclobutylmethyl)-3-[(3R,5S)-5-methyl-1-(8-trifluoromethyl-quinolin-5-yl)-piperidin-3-yl]-urea]
29 | 1000 to 10000 nM | C[C@H]1C[C@@H](NC(=O)N2C[C@@H](F)[C@@H](F)C2)CN(c2ccc(C(F)(F)F)c3ncccc23)C1 [Compound 583, (3R,4S)-3,4-Difluoro-pyrrolidine-1-carboxylic Acid [(3R,5S)-5-methyl-1-(8-trifluoromethyl-quinolin-5-yl)-piperidin-3-yl]-amide]
